Where only a bound is given, the exact number is not on record here.

Here are results for 37 molecules from patent US11673898B2, “Substituted inhibitors of menin-MLL and methods of use” (Kura Oncology, Inc., priority 2016, dated 2023).

The target in the assay is T1, Menin MLL 4-43 (Homo sapiens, UniProt O00255).
T1 sequence (O00255 1-610): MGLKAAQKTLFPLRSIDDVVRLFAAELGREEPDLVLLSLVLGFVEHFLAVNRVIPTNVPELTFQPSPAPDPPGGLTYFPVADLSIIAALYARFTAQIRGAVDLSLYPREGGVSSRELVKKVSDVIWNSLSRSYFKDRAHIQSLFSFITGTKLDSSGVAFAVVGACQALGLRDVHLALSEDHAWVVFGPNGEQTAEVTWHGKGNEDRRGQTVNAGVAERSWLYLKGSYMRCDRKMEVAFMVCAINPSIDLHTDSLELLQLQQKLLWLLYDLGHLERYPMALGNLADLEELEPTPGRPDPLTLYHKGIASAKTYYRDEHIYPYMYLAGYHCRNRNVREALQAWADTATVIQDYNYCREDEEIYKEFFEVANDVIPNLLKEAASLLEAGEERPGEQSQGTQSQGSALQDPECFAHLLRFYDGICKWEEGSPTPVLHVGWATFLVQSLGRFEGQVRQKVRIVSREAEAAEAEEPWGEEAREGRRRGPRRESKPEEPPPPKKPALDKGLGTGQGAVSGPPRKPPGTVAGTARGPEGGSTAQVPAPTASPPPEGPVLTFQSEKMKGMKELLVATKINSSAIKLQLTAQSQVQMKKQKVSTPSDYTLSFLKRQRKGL
Nature of the assay: Fluorescence polarization (FP) competition assay of the menin-MLL interaction. The conditions noted are these: fluorescence polarization assay; read-out: Menin MLL 4-43 IC50. In kind it is binding. On the technique in general: Polarisation of emitted light reports the rotation of a fluorescent probe.
Regarding `C=CC(=O)Nc1ccc(C(Cn2c(C#N)cc3c(C)c(CN4CCC(Nc5ncnc6sc(CC(F)(F)F)cc56)CC4)ccc32)OC)cc1` (stereo not shown) [Compound 1], the IC50 – broadly, the concentration needed to halve the response being measured – lay within 0.02 to 1 µM.

`Cc1c(CN2CCC(Nc3ncnc4sc(CC(F)(F)F)cc34)CC2)ccc2c1cc(C#N)n2CC(C)N1CCN(S(C)(=O)=O)CC1` (stereo not shown) [Compound 2]: the IC50 fell in the range of 0.05 to 0.25 µM. Consider `Cc1c(CN2CCC(Nc3ncnc4sc(CC(F)(F)F)cc34)CC2)ccc2c1cc(C#N)n2CC(C)N1CCN(S(C)(=O)=O)CC1` (stereo not shown) [Compound 3], for which the IC50 is 0.02 to 1 µM. Under `CCS(=O)(=O)N1CCN(C(C)Cn2c(C#N)cc3c(C)c(CN4CCC(Nc5ncnc6sc(CC(F)(F)F)cc56)CC4)ccc32)CC1` (stereo not shown) [Compound 4] stands 0.05 to 0.25 µM; under `CC(=O)N1CCN(C(C)Cn2c(C#N)cc3c(C)c(CN4CCC(Nc5ncnc6sc(CC(F)(F)F)cc56)CC4)ccc32)CC1` (stereo not shown) [Compound 5], 0.05 to 0.25 µM. Consider `Cc1c(CN2CCC(Nc3ncnc4sc(CC(F)(F)F)cc34)CC2)ccc2c1cc(C#N)n2CC(C)N1CCN(C=O)CC1` (stereo not shown) [Compound 6], for which the IC50 was less than 0.05 µM. On to `Cc1c(CN2CCC(Nc3ncnc4sc(CC(F)(F)F)cc34)CC2)ccc2c1cc(C#N)n2CC(C)N1CCN(S(N)(=O)=O)CC1` (stereo not shown) [Compound 7], for which the IC50 is 0.05 to 0.25 µM. As to `CNS(=O)(=O)N1CCN(C(C)Cn2c(C#N)cc3c(C)c(CN4CCC(Nc5ncnc6sc(CC(F)(F)F)cc56)CC4)ccc32)CC1` (stereo not shown) [Compound 8], the IC50 is less than 0.05 µM.

Regarding `Cc1c(CN2CCC(Nc3ncnc4sc(CC(F)(F)F)cc34)CC2)ccc2c1cc(C#N)n2CC(C)N1CCN(S(C)(=O)=O)C(C)C1` (stereo not shown) [Compound 11], the half-maximal inhibitory concentration (IC50) was in the range of 0.05 to 0.25 µM. Regarding `Cc1c(CN2CCC(Nc3ncnc4sc(CC(F)(F)F)cc34)CC2)ccc2c1cc(C#N)n2CC(C)N1C[C@@H](C)N(S(C)(=O)=O)[C@@H](C)C1` (stereo partly shown) [Compound 12], the IC50 is less than 0.05 µM. On to `Cc1c(CN2CCC(Nc3ncnc4sc(CC(F)(F)F)cc34)CC2)ccc2c1cc(C#N)n2CC(C)N1CCN(S(C)(=O)=O)[C@@H](C)C1` (stereo partly shown) [Compound 13], for which the IC50 is less than 0.05 µM. Regarding `Cc1c(CN2CCC(Nc3ncnc4sc(CC(F)(F)F)cc34)CC2)ccc2c1cc(C#N)n2CC(C)N1CCN(S(C)(=O)=O)[C@H](C)C1` (stereo partly shown) [Compound 14], the IC50 was less than 0.05 µM. Take `CCC(Cn1c(C#N)cc2c(C)c(CN3CCC(Nc4ncnc5sc(CC(F)(F)F)cc45)CC3)ccc21)N1CCN(S(C)(=O)=O)CC1` (stereo not shown) [Compound 15]: the IC50 was more than 1 µM. In the case of `Cc1c(CN2CCC(Nc3ncnc4sc(CC(F)(F)F)cc34)CC2)ccc2c1cc(C#N)n2CC(C)(C)N1CCN(S(C)(=O)=O)CC1` [Compound 16], the IC50 is more than 1 µM. Consider `Cc1c(CN2CCC(Nc3ncnc4sc(CC(F)(F)F)cc34)CC2)ccc2c1cc(C#N)n2C[C@@H](C)N1CCN(S(C)(=O)=O)[C@@H](C)C1` [Compound 17], for which the IC50 fell in the range of 0.05 to 0.25 µM. On to `Cc1c(CN2CCC(Nc3ncnc4sc(CC(F)(F)F)cc34)CC2)ccc2c1cc(C#N)n2C[C@H](C)N1CCN(S(C)(=O)=O)[C@@H](C)C1` [Compound 18], for which the 50% inhibitory concentration (IC50) was less than 0.05 µM. Consider `Cc1c(CN2CCC(Nc3ncnc4sc(CC(F)(F)F)cc34)CC2)ccc2c1cc(C#N)n2C[C@H](C)N1CCN(S(C)(=O)=O)[C@H](C)C1` [Compound 19], for which the IC50 was in the range of 0.05 to 0.25 µM. In the case of `Cc1c(CN2CCC(Nc3ncnc4sc(CC(F)(F)F)cc34)CC2)ccc2c1cc(C#N)n2C[C@@H](C)N1CCN(S(C)(=O)=O)[C@H](C)C1` [Compound 20], the IC50 is less than 0.05 µM. In the case of `Cc1c(CN2CCC(Nc3ncnc4sc(CC(F)(F)F)cc34)CC2)ccc2c1cc(C#N)n2CC(C)N1C[C@H](C)N(S(C)(=O)=O)[C@@H](C)C1` (stereo partly shown) [Compound 21], the IC50 lay in the range of 0.05 to 0.25 µM. For `Cc1c(CN2CCC(Nc3ncnc4sc(CC(F)(F)F)cc34)CC2)ccc2c1cc(C#N)n2CC(C)N1C[C@@H](C)N(S(C)(=O)=O)[C@H](C)C1` (stereo partly shown) [Compound 22], the IC50 is less than 0.05 µM. Under `Cc1c(CN2CCC(Nc3ncnc4sc(CC(F)(F)F)cc34)CC2)ccc2c1cc(C#N)n2CC(C1CC1)N1CCN(S(C)(=O)=O)CC1` (stereo not shown) [Compound 23] stands more than 1 µM. As to `Cc1c(CN2CCC(Nc3ncnc4sc(CC(F)(F)F)cc34)CC2)ccc2c1cc(C#N)n2CC(C(C)C)N1CCN(S(C)(=O)=O)CC1` (stereo not shown) [Compound 24], the IC50 lay in the range of 0.02 to 1 µM. Regarding `Cc1c(CN2CCC(Nc3ncnc4sc(CC(F)(F)F)cc34)CC2)ccc2c1cc(C#N)n2CC(C)N1CCN(S(C)(=O)=O)C(C)(C)C1` (stereo not shown) [Compound 25], the IC50 is 0.05 to 0.25 µM. Under `CC[C@H]1CN(C(C)Cn2c(C#N)cc3c(C)c(CN4CCC(Nc5ncnc6sc(CC(F)(F)F)cc56)CC4)ccc32)CCN1S(C)(=O)=O` (stereo partly shown) [Compound 26] stands 0.02 to 1 µM; under `Cc1c(CN2CCC(Nc3ncnc4sc(CC(F)(F)F)cc34)CC2)ccc2c1cc(C#N)n2C(C)CN1CCN(S(C)(=O)=O)CC1` (stereo not shown) [Compound 27], less than 0.05 µM; under `Cc1c(CN2CCC(Nc3ncnc4sc(CC(F)(F)F)cc34)CC2)ccc2c1cc(C#N)n2CC(C)N1CC2CCC(C1)N2S(C)(=O)=O` (stereo not shown) [Compound 28], less than 0.05 µM.

As for `CC[C@@H]1CN(C(C)Cn2c(C#N)cc3c(C)c(CN4CCC(Nc5ncnc6sc(CC(F)(F)F)cc56)CC4)ccc32)CCN1S(C)(=O)=O` (stereo partly shown) [Compound 29], the IC50 was 0.05 to 0.25 µM. Under `Cc1c(CN2CCC(Nc3ncnc4sc(CC(F)(F)F)cc34)CC2)ccc2c1cc(C#N)n2CC(C)N1CC2CC(C1)N2S(C)(=O)=O` (stereo not shown) [Compound 30] stands 0.05 to 0.25 µM. Under `Cc1c(CN2CCC(Nc3ncnc4sc(CC(F)(F)F)cc34)CC2)ccc2c1cc(C#N)n2CC(=O)N1CCN(S(C)(=O)=O)CC1` [Compound 35, 4-methyl-1-(2-(4-(methylsulfonyl)piperazin-1-yl)-2-oxoethyl)-5-((4-((6-(2,2,2-trifluoroethyl)thieno[2,3-d]pyrimidin-4-yl)amino)piperidin-1-yl)methyl)-1H-indole-2-carbonitrile] stands more than 1 µM; under `Cc1c(CN2CCC(Nc3ncnc4sc(CC(F)(F)F)cc34)CC2)ccc2c1cc(C#N)n2CCN1CCN(S(C)(=O)=O)C(C)C1` (stereo not shown) [Compound 43], 0.05 to 0.25 µM; under `Cc1c(CN2CCC(Nc3ncnc4sc(CC(F)(F)F)cc34)CC2)ccc2c1cc(C#N)n2CCN1CC(C)N(S(C)(=O)=O)CC1C` (stereo not shown) [Compound 44], 0.02 to 1 µM. `Cc1c(CN2CCC(Nc3ncnc4sc(CC(F)(F)F)cc34)CC2)ccc2c1cc(C#N)n2CCN1CCN(S(C)(=O)=O)CC1C` (stereo not shown) [Compound 45]: the IC50 fell in the range of 0.02 to 1 µM. `Cc1c(CN2CCC(Nc3ncnc4sc(CC(F)(F)F)cc34)CC2)ccc2c1cc(C#N)n2CCN1C[C@@H](C)N(S(C)(=O)=O)[C@@H](C)C1` [Compound 46]: the IC50 lay in the range of 0.05 to 0.25 µM. As to `Cc1c(CN2CCC(Nc3ncnc4sc(CC(F)(F)F)cc34)CC2)ccc2c1cc(C#N)n2CCN1C(C)CN(S(C)(=O)=O)CC1C` (stereo not shown) [Compound 47], the IC50 is more than 1 µM. For `Cc1c(CN2CCC(Nc3ncnc4sc(CC(F)(F)F)cc34)CC2)ccc2c1cc(C#N)n2CCN1C[C@@H](C)N(S(C)(=O)=O)[C@H](C)C1` [Compound 48], the IC50 fell in the range of 0.05 to 0.25 µM. For `Cc1c(CN2CCC(Nc3ncnc4sc(CC(F)(F)F)cc34)CC2)ccc2c1cc(C#N)n2CCN1C[C@H](C)N(S(C)(=O)=O)[C@@H](C)C1` [Compound 49], the IC50 is 0.05 to 0.25 µM.

In the case of `Cc1c(CN2CCC(Nc3ncnc4sc(CC(F)(F)F)cc34)CC2)ccc2c1cc(C#N)n2CCN1CCC2(CC1)CCN(S(C)(=O)=O)C2` [Compound 52], the IC50 was in the range of 0.02 to 1 µM.
